This passage reports IC50 results from patent publication US5661175A, “Hemiasterlin and geodiamolide TA” (priority 1995, dated 1997).

Assay [1] deals with P-388. In words: Antitumor cell screening, P-388 growth inhibition. It counts as cell-based, DBA/2 mouse. Particulars: Mus musculus, 72 h; P388; three days incubation at 37° C.; approximate IC50. How it is done:
(§1) Cells were maintained in logarithmic phase of growth in Eagle's Minimum Essential Medium, with Earle's Balanced Salts, with 2.0 mM L-Glutamine, with non-essential Amino Acids, without Sodium Bicarbonate (EMEM/NEAA); supplemented with 10% Fetal Calf Serum (FCS), 10^-2M Sodium Bicarbonate and 0.1 g/l Penicillin-G+Streptomycin Sulfate.
(§2) A simple screening procedure has been carried out to determine and compare the antitumor activity of these compounds, using an adapted form of the method described by Bergeron et al. (1984). The antitumor cell employed have been P-388 (suspension culture of a lymphoid neoplasm from DBA/2 mouse), A-549 (monolayer culture of a human lung carcinoma), HT-29 (monolayer culture of a human colon carcinoma) and MEL-28 (monolayer culture of a human melanoma).
P-388 cells were seeded into 16 mm wells at 1×10^4 cells per well in 1 ml aliquots of MEM 5FCS containing the indicated concentration of drug. A separate set of cultures without drug was seeded as control growth to ensure that cells remained in exponential phase of growth. All determinations were carried out in duplicate. After three days of incubation at 37° C., 10% CO2 in a 98% humid atmosphere, an approximately IC50 was determined by comparing the growth in wells with drug to the growth in wells control.

Assay [2] has as its system A-549. In words: Antitumor cell screening, A-549 growth inhibition (Crystal Violet). It counts as cell-based. Particulars: Homo sapiens, 72 h; A549; three days incubation at 37° C.; approximate IC50. The procedure: as §1, §2
(§3) A-549, HT-29 and MEL-28 were seeded into 16 mm wells at 2×10^4 cells per well in 1 ml aliquots of MEM 10FCS containing the indicated concentration of drug. A separate set of cultures without drug was seeded as control growth to ensure that cells remained in exponential phase of growth. All determinations were carried out in duplicate. After three days of incubation at 37° C., 10% CO2 in a 98% humid atmosphere, the wells were stained with 0.1% Crystal Violet. An approximately IC50 was determined by comparing the growth in wells with drug to the growth in wells control.

The subject of assay [3] is HT-29. In words: Antitumor cell screening, HT-29 growth inhibition (Crystal Violet). It is filed as cell-based. Particulars: Homo sapiens, HT-29, 72 h; HT29; three days incubation at 37° C.; approximate IC50. How it is done:
as §1, §2, §3

Assay [4] concerns MEL-28. The assay is described as follows: Antitumor cell screening, MEL-28 growth inhibition (Crystal Violet). It counts as cell-based. Particulars: Homo sapiens, SK-MEL-28, 72 h; MEL28; three days incubation at 37° C.; approximate IC50. How it is done: as §1, §2, §3

Converted amounts (≈) assume the structure as drawn.

In the case of `C/C1=C\C(C)CC(C)OC(=O)C(C(C)C)NC(=O)C(Cc2ccc(O)c(I)c2)N(C)C(=O)C(C)NC(=O)C(C)C1` (stereo not shown) [Compound 3, geodiamolide TA], the IC50 in assay [1] came out at 0.01 µg/mL (≈ 0.0149 µM); in assay [2], 0.01 µg/mL (≈ 0.0149 µM); in assay [3], 0.005 µg/mL (≈ 0.00747 µM); in assay [4], 0.01 µg/mL (≈ 0.0149 µM).
